Reference: article PMC10046961, “High-Throughput Screening Assay for Detecting Drug-Induced Changes in Synchronized Neuronal Oscillations and Potential Seizure Risk Based on Ca^2+ Fluorescence Measurements in Human Induced Pluripotent Stem Cell (hiPSC)-Derived Neuronal 2D and 3D Cultures” (Cells, 2023)
Read-outs that look alike come from different tables or passages of the source. Marks after values point to notes of the source that are not given here.

How the values were obtained:
[1] = test system: hiPSC-derived neurons co-cultured with human primary astrocytes in 3D; assay: Ca2+ transient oscillation assay (FDSS), 3D spheroids; type: cell-based; details: for Area under the curve - 3D Mean / Peak Number—3D Mean / Peak amplitude - 3D Mean / Peak width - 3D Mean / Peak-to-peak interval - 3D Mean: 60 min; for effect on peak number of oscillations, in words: 3D-cultured
Procedure, shortened: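 Fura-2 fluorescence was read twice for 20 min each: a baseline 10 min after 0.04% DMSO, and again 60 min after compound addition at nominal final concentration. The 3D co-cultures (1:1 hiPSC neurons from a donor and human astrocytes, 8000 each) matured 5 weeks in BrainPhys medium after a 1-week differentiation.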

[2] = test system: hiPSC-derived neurons co-cultured with human primary astrocytes in 2D; assay: Ca2+ transient oscillation assay (FDSS), 2D co-culture; type: cell-based; details: for effect on peak number / Ca2+ neuronal oscillations, in words: 2D format; for activation at 0.11 µM / activation at 0.33 µM / activation at 1 µM / activation at 3 µM: Homo sapiens, 1 h; for activation at 0.11 µM / activation at 0.33 µM / activation at 1 µM / activation at 3 µM / Area under the curve - 2D Mean / Peak Number—2D Mean / Peak amplitude - 2D Mean / Peak width - 2D Mean / Peak-to-peak interval - 2D Mean: 60 min
Procedure, shortened: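 Cultures were 10,000 CW50065 hiPSC excitatory neurons plus 2500 primary human astrocytes per well. Recordings used Cal-520 dye in HBSS/HEPES/glucose at 37 °C, with a 470/540 nm read at 2 Hz. Oscillations were stabilized with 0.04% DMSO, read for 20 min, then read again 60 min after compound addition (final DMSO 0.1%).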

[3] = ref PharmaPendium, cited from earlier work
[4] = read-out: Area under the curve - 2D Mean
[5] = read-out: Peak amplitude - 2D Mean
[6] = read-out: Peak-to-peak interval - 2D Mean
[7] = Table 1, peak plasma concentration in men, free therapeutic Cmax
[8] = Table 2, highest plasma concentration in humans after the therapeutic dose
[9] = concentration printed with the symbol

Clc1ccc2c(c1)C(N1CCNCC1)=Nc1ccccc1O2 [Amoxapine]
Area under the curve - 3D Mean ([1]; 0.11 µM): 122.7 % change from baseline
Peak Number—3D Mean ([1]; 0.11 µM): −10.1 % change from baseline
Peak amplitude - 3D Mean ([1]; 0.11 µM): 92.4 % change from baseline
Peak width - 3D Mean ([1]; 0.11 µM): 11.9 % change from baseline
Peak-to-peak interval - 3D Mean ([1]; 0.11 µM): 14.8 % change from baseline
Area under the curve - 3D Mean ([1]; 0.33 µM): 130.2 % change from baseline
Peak Number—3D Mean ([1]; 0.33 µM): −2.2 % change from baseline
Peak amplitude - 3D Mean ([1]; 0.33 µM): 101.9 % change from baseline
Peak width - 3D Mean ([1]; 0.33 µM): 12.5 % change from baseline
Peak-to-peak interval - 3D Mean ([1]; 0.33 µM): 7.1 % change from baseline
Area under the curve - 3D Mean ([1]; 1 µM): 124.0 % change from baseline
Peak Number—3D Mean ([1]; 1 µM): −10.8 % change from baseline
Peak amplitude - 3D Mean ([1]; 1 µM): 102.7 % change from baseline
Peak width - 3D Mean ([1]; 1 µM): 6.8 % change from baseline
Peak-to-peak interval - 3D Mean ([1]; 1 µM): 4.4 % change from baseline
Area under the curve - 3D Mean ([1]; 3 µM): 148.1 % change from baseline
Peak Number—3D Mean ([1]; 3 µM): −7.5 % change from baseline
Peak amplitude - 3D Mean ([1]; 3 µM): 105.1 % change from baseline
Peak width - 3D Mean ([1]; 3 µM): 21.0 % change from baseline
Peak-to-peak interval - 3D Mean ([1]; 3 µM): −6.6 % change from baseline
effect on peak number of oscillations, in words [1]: did not significantly change the peak number
effect on peak number / Ca2+ neuronal oscillations, in words [2]: significantly reduced peak number
activation at 0.11 µM [2, 4]: 27.8%
activation at 0.11 µM ([2]; read-out: Peak Number—2D Mean): -5.2%
activation at 0.11 µM [2, 5]: 7.7%
activation at 0.11 µM ([2]; read-out: Peak width - 2D Mean): 22%
activation at 0.11 µM [2, 6]: 8.8%
activation at 0.33 µM [2, 4]: 25.3%
activation at 0.33 µM ([2]; read-out: Peak Number—2D Mean): 25.3%
activation at 0.33 µM [2, 5]: 12.7%
activation at 0.33 µM ([2]; read-out: Peak width - 2D Mean): 14.8%
activation at 0.33 µM [2, 6]: -7.8%
activation at 1 µM [2, 4]: 22.8%
activation at 1 µM ([2]; read-out: Peak Number—2D Mean): 12.5%
activation at 1 µM [2, 5]: -1.5%
activation at 1 µM ([2]; read-out: Peak width - 2D Mean): 31.7%
activation at 1 µM [2, 6]: -4.5%
activation at 3 µM [2, 4]: -40.8%
activation at 3 µM ([2]; read-out: Peak Number—2D Mean): -35.3%
activation at 3 µM [2, 5]: -20.7%
activation at 3 µM ([2]; read-out: Peak width - 2D Mean): -37.7%
activation at 3 µM [2, 6]: 56.7%
Free Cmax [3, 7]: 40 to 600 nM
Free Cmax [3, 8]: 40 to 600 nM

CN(C)CCCN1c2ccccc2Sc2ccc(Cl)cc21 [Chlorpromazine]
Area under the curve - 3D Mean ([1]; 0.11 µM): 128.5 % change from baseline
Peak Number—3D Mean ([1]; 0.11 µM): 6.5 % change from baseline
Peak amplitude - 3D Mean ([1]; 0.11 µM): 96.7 % change from baseline
Peak width - 3D Mean ([1]; 0.11 µM): 13.3 % change from baseline
Peak-to-peak interval - 3D Mean ([1]; 0.11 µM): 10.0 % change from baseline
Area under the curve - 3D Mean ([1]; 0.33 µM): 129.9 % change from baseline
Peak Number—3D Mean ([1]; 0.33 µM): −2.6 % change from baseline
Peak amplitude - 3D Mean ([1]; 0.33 µM): 100.7 % change from baseline
Peak width - 3D Mean ([1]; 0.33 µM): 13.6 % change from baseline
Peak-to-peak interval - 3D Mean ([1]; 0.33 µM): 12.5 % change from baseline
Area under the curve - 3D Mean ([1]; 1 µM): 132.1 % change from baseline
Peak Number—3D Mean ([1]; 1 µM): 11.5 % change from baseline
Peak amplitude - 3D Mean ([1]; 1 µM): 102.4 % change from baseline
Peak width - 3D Mean ([1]; 1 µM): 13.0 % change from baseline
Peak-to-peak interval - 3D Mean ([1]; 1 µM): −9.6 % change from baseline
Area under the curve - 3D Mean ([1]; 3 µM): 131.9 % change from baseline
Peak Number—3D Mean ([1]; 3 µM): −4.8 % change from baseline
Peak amplitude - 3D Mean ([1]; 3 µM): 98.4 % change from baseline
Peak width - 3D Mean ([1]; 3 µM): 16.6 % change from baseline
Peak-to-peak interval - 3D Mean ([1]; 3 µM): 6.0 % change from baseline
activation at 0.11 µM [2, 4]: 26.5%
activation at 0.11 µM ([2]; read-out: Peak Number—2D Mean): -27%
activation at 0.11 µM [2, 5]: 8.7%
activation at 0.11 µM ([2]; read-out: Peak width - 2D Mean): 18%
activation at 0.11 µM [2, 6]: 47.2%
activation at 0.33 µM [2, 4]: 36%
activation at 0.33 µM ([2]; read-out: Peak Number—2D Mean): -29.5%
activation at 0.33 µM [2, 5]: 4%
activation at 0.33 µM ([2]; read-out: Peak width - 2D Mean): 38.5%
activation at 0.33 µM [2, 6]: 48%
activation at 1 µM [2, 4]: 10.7%
activation at 1 µM ([2]; read-out: Peak Number—2D Mean): -59.8%
activation at 1 µM [2, 5]: -4.3%
activation at 1 µM ([2]; read-out: Peak width - 2D Mean): 13.8%
activation at 1 µM [2, 6]: 151%
activation at 3 µM [2, 4]: -100%
activation at 3 µM ([2]; read-out: Peak Number—2D Mean): -100%
activation at 3 µM [2, 5]: -100%
activation at 3 µM ([2]; read-out: Peak width - 2D Mean): -100%
activation at 3 µM [2, 6]: -100%
Free Cmax [3, 7]: 50 to 150 nM
Free Cmax [3, 8]: 50 to 150 nM

N[C@@H](CCC(=O)O)C(=O)O [Glutamate]
Area under the curve - 3D Mean ([1]; 1.11 µM): 116.3 % change from baseline
Peak Number—3D Mean ([1]; 1.11 µM): −7.0 % change from baseline
Peak amplitude - 3D Mean ([1]; 1.11 µM): 85.4 % change from baseline
Peak width - 3D Mean ([1]; 1.11 µM): 12.5 % change from baseline
Peak-to-peak interval - 3D Mean ([1]; 1.11 µM): 11.6 % change from baseline
Area under the curve - 3D Mean ([1]; 3.33 µM): 129.9 % change from baseline
Peak Number—3D Mean ([1]; 3.33 µM): 12.3 % change from baseline
Peak amplitude - 3D Mean ([1]; 3.33 µM): 108.3 % change from baseline
Peak width - 3D Mean ([1]; 3.33 µM): 8.6 % change from baseline
Peak-to-peak interval - 3D Mean ([1]; 3.33 µM): 3.1 % change from baseline
Area under the curve - 3D Mean ([1]; 10 µM): 128.0 % change from baseline
Peak Number—3D Mean ([1]; 10 µM): 20.0 % change from baseline
Peak amplitude - 3D Mean ([1]; 10 µM): 103.9 % change from baseline
Peak width - 3D Mean ([1]; 10 µM): 8.1 % change from baseline
Peak-to-peak interval - 3D Mean ([1]; 10 µM): 0.4 % change from baseline
Area under the curve - 3D Mean ([1]; 30 µM): 116.3 % change from baseline
Peak Number—3D Mean ([1]; 30 µM): 8.4 % change from baseline
Peak amplitude - 3D Mean ([1]; 30 µM): 107.0 % change from baseline
Peak width - 3D Mean ([1]; 30 µM): 2.8 % change from baseline
Peak-to-peak interval - 3D Mean ([1]; 30 µM): −1.6 % change from baseline
effect on peak number of oscillations, in words [1]: did not significantly change the peak number
Ca²⁺ Transient Peak Number (3D), concentration in parentheses [1, 9]: 30 µM
Area under the curve - 2D Mean ([2]; 1.11 µM): 5.8 % change from baseline
Peak Number—2D Mean ([2]; 1.11 µM): −9.3 % change from baseline
Peak amplitude - 2D Mean ([2]; 1.11 µM): −8.5 % change from baseline
Peak width - 2D Mean ([2]; 1.11 µM): −3.4 % change from baseline
Peak-to-peak interval - 2D Mean ([2]; 1.11 µM): −2.2 % change from baseline
Area under the curve - 2D Mean ([2]; 3.33 µM): −13.0 % change from baseline
Peak Number—2D Mean ([2]; 3.33 µM): −8.9 * % change from baseline
Peak amplitude - 2D Mean ([2]; 3.33 µM): −26.9 % change from baseline
Peak width - 2D Mean ([2]; 3.33 µM): −5.2 % change from baseline
Peak-to-peak interval - 2D Mean ([2]; 3.33 µM): −17.4 % change from baseline
Area under the curve - 2D Mean ([2]; 10 µM): −72.1 % change from baseline
Peak Number—2D Mean ([2]; 10 µM): −60.3 * % change from baseline
Peak amplitude - 2D Mean ([2]; 10 µM): −60.9 % change from baseline
Peak width - 2D Mean ([2]; 10 µM): −67.3 % change from baseline
Peak-to-peak interval - 2D Mean ([2]; 10 µM): 96.3 % change from baseline
Area under the curve - 2D Mean ([2]; 30 µM): −100.0 % change from baseline
Peak Number—2D Mean ([2]; 30 µM): −100.0 * % change from baseline
Peak amplitude - 2D Mean ([2]; 30 µM): −100.0 % change from baseline
Peak width - 2D Mean ([2]; 30 µM): −100.0 % change from baseline
Peak-to-peak interval - 2D Mean ([2]; 30 µM): −100.0 % change from baseline
effect on peak number / Ca2+ neuronal oscillations, in words [2]: significantly reduced peak number
Ca²⁺ Transient Peak Number (2D), concentration in parentheses [2, 9]: 1 µM
Free Cmax [3, 7]: 1000 to 2000 nM
Free Cmax [3, 8]: 1000 to 2000 nM
